From patent US20040147527A1, “Methods of use of gemifloxacin compounds against fluoroquinolone resistant Streptococcus pneumoniae bacteria” (priority 1999, published 2004) come the findings set out here.

The structures appear in SMILES notation. In brackets after ≈: the same amount, converted by molar mass.

Assay [1] concerns S. pneumoniae with reduced susceptibility to CIP. Description: MIC by NCCLS microbroth dilution, 80 clinical isolates with CIP MIC ≧2 μg/ml. In kind it is cell-based. The following applies: Streptococcus pneumoniae. On the procedure: Topoisomerase IV (parC) and DNA gyrase (gyrA) mutations were confirmed by sequencing the QRDR region of each gene. Serotyping and PFGE were performed on all isolates. […] Breakpoints have not been established for all fluoroquinolones, thus percentage resistance was not calculated.

Assay [2] concerns S. pneumoniae (CFX and TFX susceptible and resistant clinical isolates). Put plainly: Postantibiotic effect (PAE), viable colony counting technique. In kind it is cell-based, Streptococcus pneumoniae. The method, then: This invention was based, in part, on analyses evaluating the comparative activity of gemifloxacin against various strains of S. pneumoniae. An objective of these analyses was to determine the postantibiotic effect (herein “PAE”) of GFX in CFX and TFX susceptible and resistant S. pneumoniae.
CFX resistant clinical isolates of S. pneumoniae were collected from across Canada. MICs were determined using a microbroth dilution technique described by the NCCLS. Topisomerase IV (parC) and DNA gyrase (gyrA) mutations were confirmed by sequencing the QRDR region of each gene. Two fluoroquinolone susceptible and 8 resistant isolates (3 CFX resistant. 5 CFX, TFX resistant) were selected for study. […] Antibiotics were removed using dilution into sterile media and the PAE assessed using a viable colony counting technique.

Take `CO/N=C1\CN(c2nc3c(cc2F)c(=O)c(C(=O)O)cn3C2CC2)CC1CN` (racemic) [GFX, (R,S)-7-(3-aminomethyl-4-methoxyiminopyrrolidin-1-yl)-1-cyclopropyl-6-fluoro-4-oxo-1,4-dihydro-1,8-naphthyridine-3-carboxylic acid]: in assay [1], the minimum inhibitory concentration (MIC) was in the range of 0.03 to 5 mg/L (≈ 0.077 to 12.8 µM), the MIC50 turned out to be 0.06 mg/L (≈ 0.154 µM) and the MIC90 was found to be 0.25 mg/L (≈ 0.642 µM). Also, in assay [2] (GFX, 4× MIC for 2 hours), the “mean PAE” value was found to be 2.7 h. In addition, the “mean PAE” value in assay [2] (GFX, 10× MIC for 2 hours) amounted to 3.8 h. The “difference in duration of PAE between CFX or TFX susceptible and resistant strains” value in assay [2] (p<0.05) is on record as “no significant difference”.

Consider `COc1c(N2CCNC(C)C2)c(F)cc2c(=O)c(C(=O)O)cn(C3CC3)c12` (centres unmarked) [GAT, gatifloxacin], for which, in assay [1], the MIC lay within 0.25 to 8 mg/L (≈ 0.666 to 21.3 µM), the MIC50 is 0.5 mg/L (≈ 1.33 µM) and the MIC90 stood at 4 mg/L (≈ 10.7 µM).

In assay [1], `Cc1c(F)c(N2CCNC(C)C2)cc2c1c(=O)c(C(=O)O)cn2C1CC1` (centres unmarked) [GRE, grepafloxacin] gave an MIC of 0.12 to 8 mg/L (≈ 0.334 to 22.3 µM), an MIC50 of 0.5 mg/L (≈ 1.39 µM) and an MIC90 of 8 mg/L (≈ 22.3 µM).

On to `C[C@H]1COc2c(N3CCN(C)CC3)c(F)cc3c(=O)c(C(=O)O)cn1c23` [LEV, levofloxacin], for which, in assay [1], the MIC lay within 1 to 32 mg/L (≈ 2.77 to 88.6 µM), the MIC50 came out at 2 mg/L (≈ 5.53 µM) and the MIC90 was 16 mg/L (≈ 44.3 µM).

Consider `COc1c(N2C[C@@H]3CCCN[C@@H]3C2)c(F)cc2c(=O)c(C(=O)O)cn(C3CC3)c12` [MOX, moxifloxacin], for which, in assay [1], the minimal inhibitory concentration (MIC) was in the range of 0.12 to 4 mg/L (≈ 0.299 to 9.96 µM), the MIC50 is 0.25 mg/L (≈ 0.623 µM) and the MIC90 amounted to 2 mg/L (≈ 4.98 µM).

On to `C[C@@H]1CN(c2c(F)c(N)c3c(=O)c(C(=O)O)cn(C4CC4)c3c2F)C[C@H](C)N1` [SPA, sparfloxacin], for which, in assay [1], the minimal inhibitory concentration (MIC) fell in the range of 0.25 to 32 mg/L (≈ 0.637 to 81.5 µM), the MIC50 is 0.5 mg/L (≈ 1.27 µM) and the MIC90 was found to be 16 mg/L (≈ 40.8 µM).

In assay [1], `N[C@@H]1[C@H]2CN(c3nc4c(cc3F)c(=O)c(C(=O)O)cn4-c3ccc(F)cc3F)C[C@@H]12` [TFX, trovafloxacin] showed a minimal inhibitory concentration (MIC) of 0.06 to 8 mg/L (≈ 0.144 to 19.2 µM), an MIC50 of 0.5 mg/L (≈ 1.2 µM) and an MIC90 of 4 mg/L (≈ 9.61 µM). In addition, the “mean PAE” value in assay [2] (TFX susceptible isolates, 4× MIC for 2 hours) was found to be 2.1 h. Further, the “mean PAE” value in assay [2] (TFX susceptible isolates, 10× MIC for 2 hours) was determined as 3.2 h.
